{
  "source": "ChEMBL document CHEMBL1201862",
  "about": "“PubChem BioAssay data set” (2004)",
  "key": {"[1]": {"molecular_target": "Peroxisome proliferator-activated receptor gamma/Nuclear receptor coactivator 2 (Homo sapiens, UniProt P37231)", "assay_type": "functional"}, "[2]": {"molecular_target": "Peroxisome proliferator-activated receptor gamma/Nuclear receptor coactivator 1 (Homo sapiens, UniProt P37231)", "assay_type": "functional"}, "[3]": {"molecular_target": "Peroxisome proliferator-activated receptor gamma/Nuclear receptor coactivator 3 (Homo sapiens, UniProt P37231)", "assay_type": "functional"}, "[4]": {"molecular_target": "Transitional endoplasmic reticulum ATPase (Homo sapiens, UniProt P55072, C522A)", "test": "C522A mutant p97 ATPase inhibitors, dose response, counter-screen for p97 inhibitor project, biochemical, luminescence (AID 1544)"}, "[5]": {"molecular_target": "Transitional endoplasmic reticulum ATPase (Homo sapiens, UniProt P55072)", "test": "p97 ATPase inhibitors, dose response, biochemical (AID 1534)"}, "[6]": {"molecular_target": "Induced myeloid leukemia cell differentiation protein Mcl-1 (Homo sapiens, UniProt Q07820)", "sequence (Q07820 whole entry)": "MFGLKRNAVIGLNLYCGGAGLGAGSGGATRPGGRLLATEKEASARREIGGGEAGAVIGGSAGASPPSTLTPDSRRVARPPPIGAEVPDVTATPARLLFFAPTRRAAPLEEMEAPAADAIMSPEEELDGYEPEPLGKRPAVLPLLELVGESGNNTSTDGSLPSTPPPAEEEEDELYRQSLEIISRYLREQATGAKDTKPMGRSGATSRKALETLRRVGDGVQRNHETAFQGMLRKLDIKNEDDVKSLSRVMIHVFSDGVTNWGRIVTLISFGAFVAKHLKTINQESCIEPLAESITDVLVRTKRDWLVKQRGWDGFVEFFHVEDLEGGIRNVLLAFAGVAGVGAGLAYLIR", "test": "blockers of MCL1 binding to BIM peptide – biochemical, fluorescence polarization, BIM-BH3 peptide, 1536-well, dose response (AID 2217)"}, "[7]": {"molecular_target": "Bcl-2-like protein 1 (Homo sapiens, UniProt Q07817)", "sequence (Q07817 whole entry)": "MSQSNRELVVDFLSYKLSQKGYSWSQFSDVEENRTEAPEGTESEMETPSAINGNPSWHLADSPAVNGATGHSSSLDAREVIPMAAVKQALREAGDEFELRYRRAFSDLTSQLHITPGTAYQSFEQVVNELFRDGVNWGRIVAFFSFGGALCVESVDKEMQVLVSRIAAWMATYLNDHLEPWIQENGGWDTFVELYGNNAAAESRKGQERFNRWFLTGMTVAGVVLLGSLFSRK", "test": "blockers of BCLXL peptide binding – biochemical, fluorescence polarization, 1536-well, selectivity assay for MCL1 inhibitor project, dose response (AID 2218)"}, "[8]": {"molecular_target": "T1, Carboxy-terminal domain RNA polymerase II polypeptide A small phosphatase 1 (Homo sapiens, UniProt Q9GZU7)", "T1 sequence (Q9GZU7 whole entry)": "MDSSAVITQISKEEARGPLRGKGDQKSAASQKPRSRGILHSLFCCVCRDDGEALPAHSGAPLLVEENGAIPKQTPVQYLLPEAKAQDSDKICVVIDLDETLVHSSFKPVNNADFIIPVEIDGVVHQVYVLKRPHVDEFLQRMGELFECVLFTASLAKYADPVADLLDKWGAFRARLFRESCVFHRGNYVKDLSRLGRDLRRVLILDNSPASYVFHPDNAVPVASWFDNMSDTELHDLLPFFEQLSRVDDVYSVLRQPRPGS", "test": "CTDSP1 inhibitors, concentration-response, biochemical, absorbance readout, ultra-high-throughput screen actives (AID 540297)", "assay_type": "functional"}, "[9]": {"molecular_target": "T2, Caspase-6 (Homo sapiens, UniProt P55212)", "T2 sequence (P55212 whole entry)": "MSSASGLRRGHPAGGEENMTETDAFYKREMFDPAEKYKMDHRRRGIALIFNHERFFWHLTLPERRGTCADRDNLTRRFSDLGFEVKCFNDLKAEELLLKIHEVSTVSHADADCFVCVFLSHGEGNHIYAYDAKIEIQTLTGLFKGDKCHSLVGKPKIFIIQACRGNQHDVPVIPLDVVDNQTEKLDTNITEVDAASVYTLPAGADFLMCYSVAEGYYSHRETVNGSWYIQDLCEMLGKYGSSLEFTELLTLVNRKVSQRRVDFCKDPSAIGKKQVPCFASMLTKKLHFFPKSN", "test": "inhibition of CASP6 peptide cleavage – biochemical, VEID-R110 fluorescence, cherry-pick, dose response (AID 720632)"}, "[10]": {"molecular_target": "Neuropeptide Y receptor type 1 (Homo sapiens, UniProt P25929)", "sequence (P25929 whole entry)": "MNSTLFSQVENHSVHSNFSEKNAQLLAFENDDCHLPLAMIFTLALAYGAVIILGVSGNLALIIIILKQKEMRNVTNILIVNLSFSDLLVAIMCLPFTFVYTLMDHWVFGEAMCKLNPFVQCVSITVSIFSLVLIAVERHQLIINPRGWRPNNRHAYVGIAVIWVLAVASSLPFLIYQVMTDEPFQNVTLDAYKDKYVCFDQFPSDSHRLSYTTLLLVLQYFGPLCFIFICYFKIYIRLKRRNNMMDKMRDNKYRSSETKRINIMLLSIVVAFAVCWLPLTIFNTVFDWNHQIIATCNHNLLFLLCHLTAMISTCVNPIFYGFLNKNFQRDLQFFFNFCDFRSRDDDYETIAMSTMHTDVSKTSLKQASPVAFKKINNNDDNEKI", "assay_type": "functional"}, "[11]": {"molecular_target": "Neuropeptide Y receptor type 2 (Homo sapiens, UniProt P49146)", "sequence (P49146 whole entry)": "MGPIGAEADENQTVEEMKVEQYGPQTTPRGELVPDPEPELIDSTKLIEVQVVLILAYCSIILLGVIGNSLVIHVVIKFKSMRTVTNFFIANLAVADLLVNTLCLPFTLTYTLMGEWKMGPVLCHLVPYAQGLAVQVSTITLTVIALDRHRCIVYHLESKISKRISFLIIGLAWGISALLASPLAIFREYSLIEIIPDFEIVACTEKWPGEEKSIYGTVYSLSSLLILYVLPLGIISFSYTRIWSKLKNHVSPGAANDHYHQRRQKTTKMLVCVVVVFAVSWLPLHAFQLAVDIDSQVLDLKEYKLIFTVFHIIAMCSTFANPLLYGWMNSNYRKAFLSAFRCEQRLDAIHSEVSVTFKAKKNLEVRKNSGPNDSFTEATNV", "assay_type": "functional, cell-based"}, "[12]": {"molecular_target": "T3, Mannose-6-phosphate isomerase (Homo sapiens, UniProt P34949)", "T3 sequence (P34949 whole entry)": "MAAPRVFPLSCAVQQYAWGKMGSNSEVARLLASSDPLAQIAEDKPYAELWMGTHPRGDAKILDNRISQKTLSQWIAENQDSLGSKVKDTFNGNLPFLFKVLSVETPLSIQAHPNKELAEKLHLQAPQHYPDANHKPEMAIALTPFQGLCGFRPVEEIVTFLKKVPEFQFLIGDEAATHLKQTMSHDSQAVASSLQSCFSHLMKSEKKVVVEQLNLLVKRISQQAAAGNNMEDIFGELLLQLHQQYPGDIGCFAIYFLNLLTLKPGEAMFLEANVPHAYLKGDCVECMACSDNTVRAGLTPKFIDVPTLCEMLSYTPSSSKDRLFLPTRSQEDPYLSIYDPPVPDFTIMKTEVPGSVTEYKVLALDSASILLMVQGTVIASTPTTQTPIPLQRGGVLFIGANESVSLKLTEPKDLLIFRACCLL", "test": "MPI enzyme activity inhibition – biochemical, fluorescence intensity, coupled assay, primary screen (AID 1209)"}, "[13]": {"molecular_target": "T4, Estrogen receptor (Homo sapiens, UniProt P03372)", "T4 sequence (P03372 whole entry)": "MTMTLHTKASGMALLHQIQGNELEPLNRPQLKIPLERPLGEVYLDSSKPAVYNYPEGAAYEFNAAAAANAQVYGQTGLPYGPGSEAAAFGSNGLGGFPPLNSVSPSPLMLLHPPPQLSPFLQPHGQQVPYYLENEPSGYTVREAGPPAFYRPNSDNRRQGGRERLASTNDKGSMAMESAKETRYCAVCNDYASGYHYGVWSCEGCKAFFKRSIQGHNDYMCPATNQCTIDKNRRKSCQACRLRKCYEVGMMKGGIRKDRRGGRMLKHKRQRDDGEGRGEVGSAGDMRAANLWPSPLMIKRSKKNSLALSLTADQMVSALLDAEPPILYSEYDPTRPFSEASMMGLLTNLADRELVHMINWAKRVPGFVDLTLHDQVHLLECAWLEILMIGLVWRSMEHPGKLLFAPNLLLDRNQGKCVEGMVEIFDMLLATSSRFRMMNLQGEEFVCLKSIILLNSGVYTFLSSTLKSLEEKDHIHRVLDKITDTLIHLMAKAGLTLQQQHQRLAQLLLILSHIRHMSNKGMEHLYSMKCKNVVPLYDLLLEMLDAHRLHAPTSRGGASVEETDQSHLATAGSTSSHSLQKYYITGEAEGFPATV", "test": "ERα coactivator recruitment enhancers – biochemical, TR-FRET, ERα LBD, dose response (AID 737)"}, "[14]": {"molecular_target": "Melanin-concentrating hormone receptor 1 (Homo sapiens, UniProt Q99705)", "test": "Late-stage fluorescence-based counterscreen for antagonists of the G-protein coupled receptor 7 (GPR7): cell-based dose response assay to identify antagonists of the melanin-concentrating hormone receptor 1 (MCHR1). [Related pubchem assays (depositor defined):AID1861, AID1880, AID1952, AID2148, AID2251, AID2257, AID485339]", "assay_type": "functional"}, "[15]": {"test": "antiviral protection against BTV-induced cell death – arbovirus, BSR cells, confirmation (AID 1250);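 further: protection from viral cytopathic effect measured as cell viability by ATP luminescence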", "assay_type": "functional"}, "[16]": {"molecular_target": "T5, Voltage-gated N-type calcium channel alpha-1B subunit/Amyloid beta A4 precursor protein-binding family A member 1 (Homo sapiens, UniProt Q00975+Q02410)", "T5 sequence (Q00975 whole entry)": "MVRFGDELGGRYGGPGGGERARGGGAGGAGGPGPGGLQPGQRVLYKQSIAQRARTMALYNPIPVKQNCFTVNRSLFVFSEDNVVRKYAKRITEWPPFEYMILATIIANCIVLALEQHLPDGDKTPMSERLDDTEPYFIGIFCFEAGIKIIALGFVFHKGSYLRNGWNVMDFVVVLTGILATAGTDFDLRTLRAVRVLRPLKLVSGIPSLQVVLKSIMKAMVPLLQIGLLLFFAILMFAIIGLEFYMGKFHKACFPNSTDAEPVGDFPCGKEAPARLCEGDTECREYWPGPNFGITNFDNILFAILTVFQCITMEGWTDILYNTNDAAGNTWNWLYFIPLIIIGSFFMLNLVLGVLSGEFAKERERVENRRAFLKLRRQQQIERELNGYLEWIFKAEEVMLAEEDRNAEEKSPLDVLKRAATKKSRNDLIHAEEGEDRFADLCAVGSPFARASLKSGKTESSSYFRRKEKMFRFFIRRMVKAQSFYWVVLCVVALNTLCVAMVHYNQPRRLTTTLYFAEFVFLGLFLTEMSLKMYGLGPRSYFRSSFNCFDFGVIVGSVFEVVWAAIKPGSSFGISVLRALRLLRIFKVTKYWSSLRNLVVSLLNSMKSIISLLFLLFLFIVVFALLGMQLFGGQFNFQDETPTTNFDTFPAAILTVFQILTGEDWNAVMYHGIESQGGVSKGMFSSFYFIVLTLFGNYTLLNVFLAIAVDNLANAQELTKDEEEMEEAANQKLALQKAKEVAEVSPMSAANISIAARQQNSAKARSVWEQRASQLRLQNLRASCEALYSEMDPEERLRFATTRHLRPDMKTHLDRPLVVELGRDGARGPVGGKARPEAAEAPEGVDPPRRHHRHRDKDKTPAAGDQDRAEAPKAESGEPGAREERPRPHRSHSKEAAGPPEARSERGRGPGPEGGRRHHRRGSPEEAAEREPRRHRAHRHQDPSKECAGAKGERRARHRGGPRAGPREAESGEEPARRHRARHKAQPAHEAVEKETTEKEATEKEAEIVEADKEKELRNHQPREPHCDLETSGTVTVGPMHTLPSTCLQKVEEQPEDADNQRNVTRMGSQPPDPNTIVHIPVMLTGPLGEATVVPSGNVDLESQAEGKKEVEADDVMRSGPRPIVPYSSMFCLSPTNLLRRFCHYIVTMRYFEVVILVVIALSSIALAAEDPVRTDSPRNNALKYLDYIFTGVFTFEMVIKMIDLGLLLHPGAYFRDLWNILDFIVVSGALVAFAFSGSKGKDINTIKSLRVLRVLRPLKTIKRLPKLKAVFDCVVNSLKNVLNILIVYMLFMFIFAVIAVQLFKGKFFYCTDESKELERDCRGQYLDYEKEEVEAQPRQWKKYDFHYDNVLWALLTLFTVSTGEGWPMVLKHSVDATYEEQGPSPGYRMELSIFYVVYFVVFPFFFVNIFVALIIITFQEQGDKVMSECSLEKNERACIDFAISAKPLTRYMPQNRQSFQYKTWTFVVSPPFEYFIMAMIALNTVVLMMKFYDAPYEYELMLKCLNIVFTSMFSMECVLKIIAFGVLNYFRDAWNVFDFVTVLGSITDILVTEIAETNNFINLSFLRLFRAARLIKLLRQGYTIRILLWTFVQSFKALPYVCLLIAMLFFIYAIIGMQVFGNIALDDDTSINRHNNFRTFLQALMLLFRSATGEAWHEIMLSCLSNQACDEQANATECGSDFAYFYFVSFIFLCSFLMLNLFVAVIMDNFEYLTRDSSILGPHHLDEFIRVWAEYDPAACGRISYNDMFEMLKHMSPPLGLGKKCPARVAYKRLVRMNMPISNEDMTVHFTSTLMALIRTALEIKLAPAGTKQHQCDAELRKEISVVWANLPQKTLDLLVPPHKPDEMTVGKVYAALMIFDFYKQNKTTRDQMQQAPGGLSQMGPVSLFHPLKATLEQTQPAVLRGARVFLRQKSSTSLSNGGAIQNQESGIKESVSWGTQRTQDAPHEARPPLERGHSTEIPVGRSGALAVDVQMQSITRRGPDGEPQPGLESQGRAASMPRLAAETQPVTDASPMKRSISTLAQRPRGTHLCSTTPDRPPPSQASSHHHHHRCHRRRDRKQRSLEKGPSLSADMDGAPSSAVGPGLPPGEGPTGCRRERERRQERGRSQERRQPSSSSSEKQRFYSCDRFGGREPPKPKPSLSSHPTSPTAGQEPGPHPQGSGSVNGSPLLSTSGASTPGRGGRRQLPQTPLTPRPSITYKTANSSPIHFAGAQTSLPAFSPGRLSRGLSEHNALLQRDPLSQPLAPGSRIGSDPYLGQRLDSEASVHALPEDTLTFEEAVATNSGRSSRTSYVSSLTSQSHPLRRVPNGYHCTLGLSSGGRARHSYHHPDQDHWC", "T5 sequence (Q02410 whole entry)": "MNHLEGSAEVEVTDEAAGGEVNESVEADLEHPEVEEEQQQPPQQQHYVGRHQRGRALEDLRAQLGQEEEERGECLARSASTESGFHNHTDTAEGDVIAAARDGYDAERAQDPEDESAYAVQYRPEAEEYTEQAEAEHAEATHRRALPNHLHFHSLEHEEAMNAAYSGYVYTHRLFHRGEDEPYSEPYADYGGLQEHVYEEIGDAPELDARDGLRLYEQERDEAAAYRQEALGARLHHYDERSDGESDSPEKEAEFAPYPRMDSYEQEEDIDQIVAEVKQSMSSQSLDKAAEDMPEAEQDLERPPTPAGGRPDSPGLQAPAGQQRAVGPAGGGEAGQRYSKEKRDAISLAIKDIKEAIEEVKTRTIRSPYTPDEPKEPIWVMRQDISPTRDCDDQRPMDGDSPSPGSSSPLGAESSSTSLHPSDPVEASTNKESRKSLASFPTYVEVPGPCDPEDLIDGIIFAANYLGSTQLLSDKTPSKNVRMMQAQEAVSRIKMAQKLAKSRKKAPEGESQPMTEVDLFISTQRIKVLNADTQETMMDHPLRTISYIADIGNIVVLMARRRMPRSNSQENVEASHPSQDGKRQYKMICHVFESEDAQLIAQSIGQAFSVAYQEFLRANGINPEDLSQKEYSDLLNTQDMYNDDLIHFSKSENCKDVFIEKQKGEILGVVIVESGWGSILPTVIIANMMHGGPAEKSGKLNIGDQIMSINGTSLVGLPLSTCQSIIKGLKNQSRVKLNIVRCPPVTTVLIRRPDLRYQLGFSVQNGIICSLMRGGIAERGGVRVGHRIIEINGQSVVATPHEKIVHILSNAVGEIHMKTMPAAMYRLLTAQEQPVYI", "assay_type": "protein assay"}, "[17]": {"molecular_target": "Large T antigen (Simian virus 40, UniProt P03070)", "assay_type": "functional, Betapolyomavirus macacae"}, "[18]": {"molecular_target": "T5, Voltage-gated N-type calcium channel alpha-1B subunit/Amyloid beta A4 precursor protein-binding family A member 1", "assay_type": "protein assay", "remark": "listed apart in the source"}, "[19]": {"molecular_target": "T3, Mannose-6-phosphate isomerase", "test": "MPI inhibition at elevated mannose 6-phosphate – biochemical, fluorescence intensity, high mannose 6-phosphate, primary screen (AID 1220)"}, "[20]": {"molecular_target": "Glucose-6-phosphate 1-dehydrogenase (Homo sapiens, UniProt P11413)", "test": "inhibition of Homo sapiens G6PD, dose series – biochemical, fluorescence, selectivity assay for P. falciparum G6PD inhibitor project, dose response (AID 504792)", "assay_type": "functional"}, "[21]": {"molecular_target": "Phosphoethanolamine/phosphocholine phosphatase (Homo sapiens, UniProt Q8TCT1)", "sequence (Q8TCT1 whole entry)": "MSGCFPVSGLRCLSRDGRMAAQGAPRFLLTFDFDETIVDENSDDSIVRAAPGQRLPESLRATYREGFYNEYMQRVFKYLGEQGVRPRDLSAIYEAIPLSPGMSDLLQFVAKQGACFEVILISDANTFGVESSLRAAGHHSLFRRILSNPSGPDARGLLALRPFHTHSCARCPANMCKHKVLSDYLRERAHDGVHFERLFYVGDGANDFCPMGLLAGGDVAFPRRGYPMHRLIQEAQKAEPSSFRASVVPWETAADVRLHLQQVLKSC", "test": "SAR assay for compounds that inhibit PHOSPHO1. [Related pubchem assays (depositor defined):AID1545, AID1565, AID1574]"}, "[22]": {"molecular_target": "Eukaryotic translation initiation factor 4E (Mus musculus, UniProt P63073)", "sequence (P63073 whole entry)": "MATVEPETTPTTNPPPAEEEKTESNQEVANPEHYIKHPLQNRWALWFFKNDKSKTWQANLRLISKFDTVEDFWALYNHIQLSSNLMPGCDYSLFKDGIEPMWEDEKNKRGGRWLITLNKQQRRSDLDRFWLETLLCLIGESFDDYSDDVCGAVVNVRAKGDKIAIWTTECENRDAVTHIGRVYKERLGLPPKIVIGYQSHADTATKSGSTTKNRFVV", "test": "blockers of eIF4G binding by eIF4E – biochemical, TR-FRET, dose response (AID 855);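 further: potency for disrupting eIF4E binding to eIF4GI seen as loss of FRET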", "assay_type": "functional"}, "[23]": {"molecular_target": "T5, Voltage-gated N-type calcium channel alpha-1B subunit/Amyloid beta A4 precursor protein-binding family A member 1", "test": "disruptors of Mint-PDZ/N-type channel peptide interaction – biochemical, HTRF, set 2, SAR follow-up (AID 434980)", "assay_type": "functional"}, "[24]": {"molecular_target": "T5, Voltage-gated N-type calcium channel alpha-1B subunit/Amyloid beta A4 precursor protein-binding family A member 1", "test": "disruptors of Mint-PDZ/N-type channel peptide interaction – biochemical, HTRF, SAR follow-up (AID 2489)", "assay_type": "functional"}},
  "note": "The source made the active and inactive calls.",
  "data": [
    {"smiles": "N#Cc1c(NC(=O)c2ccccc2Cl)n(Cc2ccccc2)c2nc3ccccc3nc12", "values": [
      {"measurement": "EC50", "setting": "[1]", "result": "> 26.5 µM (not active)"},
      {"measurement": "EC50", "setting": "[2]", "result": "> 79.4 µM (not active)"},
      {"measurement": "EC50", "setting": "[3]", "result": "9.38 µM (active)"},
      {"measurement": "IC50", "setting": "[4]", "result": "> 50 µM (not active)"},
      {"measurement": "IC50", "setting": "[5]", "result": "> 50 µM (not active)"}
    ]},
    {"smiles": "COc1cccc(C(=O)OCC(=O)Nc2sc3c(c2C(N)=O)CCC3)c1O", "values": [
      {"measurement": "IC50", "setting": "[6]", "result": "50.2 µM (not active)"},
      {"measurement": "IC50", "setting": "[7]", "result": "> 109 µM (not active)"},
      {"measurement": "IC50", "setting": "[8]", "result": "3.73 µM (active)"},
      {"measurement": "AC50", "setting": "[9]", "result": "17.7 µM (active)"}
    ]},
    {"smiles": "O=C(COc1ccccc1CNCc1ccccc1)Nc1ccccc1", "values": [
      {"measurement": "IC50", "setting": "[10]", "result": "5.16 µM (active)"},
      {"measurement": "IC50", "setting": "[11]", "result": "9.67 µM (active)"}
    ]},
    {"smiles": "CC(C)c1ccc(N2C(=O)CC(Sc3nc[nH]n3)C2=O)cc1", "note": "(centres undefined)", "values": [
      {"measurement": "IC50", "setting": "[12]", "result": "> 50 µM (not active)"}
    ]},
    {"smiles": "COc1ccc(-c2nnc(SCC(=O)c3cc(C)n(Cc4cccs4)c3C)o2)cc1", "values": [
      {"measurement": "EC50", "setting": "[13]", "result": "7.51 µM (active)"}
    ]},
    {"smiles": "COc1ccc(Oc2c(Cl)cnn(-c3ccc(C(C)C)cc3)c2=O)cc1", "values": [
      {"measurement": "IC50", "setting": "[14]", "result": "3.1 µM (active)"}
    ]},
    {"smiles": "COc1ccc2oc3cc(C)[n+]([O-])c(-c4ccc(C)cc4)c3c2c1", "values": [
      {"measurement": "IC50", "setting": "[15]", "result": "23 µM (active)"}
    ]},
    {"smiles": "CNc1nc(-c2ccccc2)[n+](-c2ccc(C)cc2)s1", "values": [
      {"measurement": "IC50", "setting": "[16]", "result": "1.4 µM (active)"},
      {"measurement": "IC50", "setting": "[17]", "result": "39 µM (active)"},
      {"measurement": "IC50", "setting": "[18]", "result": "2.48 µM (active)"},
      {"measurement": "IC50", "setting": "[19]", "result": "6.89 µM (active)"},
      {"measurement": "IC50", "setting": "[20]", "result": "10.5 µM (active)"},
      {"measurement": "IC50", "setting": "[21]", "result": "4.47 µM (inactive)"},
      {"measurement": "IC50", "setting": "[22]", "result": "1.49 µM (active)"},
      {"measurement": "IC50", "setting": "[23]", "result": "0.278 µM (active)"},
      {"measurement": "IC50", "setting": "[24]", "result": "< 0.11 µM (active)"}
    ]}
  ]
}
